Laboratory results as given in ChEMBL document CHEMBL2034905, “Synthesis of benzimidazolyl-1,3,4-oxadiazol-2ylthio-N-phenyl (benzothiazolyl) acetamides as antibacterial, antifungal and antituberculosis agents” (Eur J Med Chem, 2012).
Converted amounts (≈) assume the structure as drawn.

Key:
[1] = test system: Mycobacterium tuberculosis; assay: Antituberculosis activity against Mycobacterium tuberculosis H37Rv by Lowenstein-Jensen method; assay type: functional
[2] = test system: Mycobacterium tuberculosis; assay: Antituberculosis activity against Mycobacterium tuberculosis H37Rv at 6.25 ug/ml by Lowenstein-Jensen method; assay type: functional
[3] = Lipophilicity, log P of the compound; assay type: physicochemical; settings: octanol/water
[4] = test system: Staphylococcus aureus; assay: Antibacterial activity against Staphylococcus aureus MTCC 96 at 100 ug/disc by paper disc diffusion technique; assay type: functional; settings: read-out: IZ
[5] = test system: Bacillus cereus; assay: Antibacterial activity against Bacillus cereus MTCC 430 at 100 ug/disc by paper disc diffusion technique; assay type: functional; settings: read-out: IZ
[6] = test system: Escherichia coli; assay: Antibacterial activity against Escherichia coli MTCC 739 at 100 ug/disc by paper disc diffusion technique; assay type: functional; settings: read-out: IZ
[7] = test system: Pseudomonas aeruginosa; assay: Antibacterial activity against Pseudomonas aeruginosa MTCC 741 at 100 ug/disc by paper disc diffusion technique; assay type: functional; settings: read-out: IZ
[8] = test system: Klebsiella pneumoniae; assay: Antibacterial activity against Klebsiella pneumoniae MTCC 109 at 100 ug/disc by paper disc diffusion technique; assay type: functional; settings: read-out: IZ
[9] = test system: Salmonella typhi; assay: Antibacterial activity against Salmonella typhi MTCC 733 at 100 ug/disc by paper disc diffusion technique; assay type: functional, Salmonella enterica subsp. enterica serovar Typhi; settings: Salmonella enterica, read-out: IZ
[10] = test system: Proteus vulgaris; assay: Antibacterial activity against Proteus vulgaris MTCC 1771 at 100 ug/disc by paper disc diffusion technique; assay type: functional; settings: read-out: IZ
[11] = test system: Shigella flexneri; assay: Antibacterial activity against Shigella flexneri MTCC 1457 at 100 ug/disc by paper disc diffusion technique; assay type: functional; settings: read-out: IZ
[12] = test system: Staphylococcus aureus; assay: Antibacterial activity against Staphylococcus aureus MTCC 96 by agar streak dilution method; assay type: functional
[13] = test system: Bacillus cereus; assay: Antibacterial activity against Bacillus cereus MTCC 430 by agar streak dilution method; assay type: functional
[14] = test system: Escherichia coli; assay: Antibacterial activity against Escherichia coli MTCC 739 by agar streak dilution method; assay type: functional
[15] = test system: Pseudomonas aeruginosa; assay: Antibacterial activity against Pseudomonas aeruginosa MTCC 741 by agar streak dilution method; assay type: functional
[16] = test system: Klebsiella pneumoniae; assay: Antibacterial activity against Klebsiella pneumoniae MTCC 109 by agar streak dilution method; assay type: functional
[17] = test system: Salmonella typhi; assay: Antibacterial activity against Salmonella typhi MTCC 733 by agar streak dilution method; assay type: functional, Salmonella enterica subsp. enterica serovar Typhi; settings: Salmonella enterica
[18] = test system: Proteus vulgaris; assay: Antibacterial activity against Proteus vulgaris MTCC 1771 by agar streak dilution method; assay type: functional
[19] = test system: Shigella flexneri; assay: Antibacterial activity against Shigella flexneri MTCC 1457 by agar streak dilution method; assay type: functional
[20] = test system: Aspergillus niger; assay: Antifungal activity against Aspergillus niger MTCC 282 at 100 ug/disc by paper disc diffusion technique; assay type: functional; settings: read-out: IZ
[21] = test system: Aspergillus fumigatus; assay: Antifungal activity against Aspergillus fumigatus MTCC 343 at 100 ug/disc by paper disc diffusion technique; assay type: functional; settings: read-out: IZ
[22] = test system: Aspergillus clavatus; assay: Antifungal activity against Aspergillus clavatus MTCC 1323 at 100 ug/disc by paper disc diffusion technique; assay type: functional; settings: read-out: IZ
[23] = test system: Candida albicans; assay: Antifungal activity against Candida albicans MTCC 183 at 100 ug/disc by paper disc diffusion technique; assay type: functional; settings: read-out: IZ
[24] = test system: Aspergillus niger; assay: Antifungal activity against Aspergillus niger MTCC 282 by agar streak dilution method; assay type: functional
[25] = test system: Aspergillus fumigatus; assay: Antifungal activity against Aspergillus fumigatus MTCC 343 by agar streak dilution method; assay type: functional
[26] = test system: Aspergillus clavatus; assay: Antifungal activity against Aspergillus clavatus MTCC 1323 by agar streak dilution method; assay type: functional
[27] = test system: Candida albicans; assay: Antifungal activity against Candida albicans MTCC 183 by agar streak dilution method; assay type: functional
[28] = test system: Mycobacterium tuberculosis; assay: Antituberculosis activity against Mycobacterium tuberculosis H37Rv by BACTEC MGIT method; assay type: functional

Compound | MIC [1] [µg/mL] | inhibition at 6.25 µg/mL [2] [%] | zone of inhibition at 100 µg/disc [4] [mm] | zone of inhibition at 100 µg/disc [5] [mm] | zone of inhibition at 100 µg/disc [6] [mm] | zone of inhibition at 100 µg/disc [7] [mm] | zone of inhibition at 100 µg/disc [8] [mm] | zone of inhibition at 100 µg/disc [9] [mm] | zone of inhibition at 100 µg/disc [10] [mm] | zone of inhibition at 100 µg/disc [11] [mm] | MIC [12] [µg/mL] | MIC [13] [µg/mL] | MIC [14] [µg/mL] | MIC [15] [µg/mL] | MIC [16] [µg/mL] | MIC [17] [µg/mL] | MIC [18] [µg/mL] | MIC [19] [µg/mL] | zone of inhibition at 100 µg/disc [20] [mm] | zone of inhibition at 100 µg/disc [21] [mm] | also measured
Cc1ccc2nc(NC(=O)CSc3nnc(Cn4cnc5ccccc54)o3)sc2c1 | 200 (≈ 458 µM) | 97 | 15 | 19 | 12 | 15 | 18 | 11 | 20 | 14 | 50 (≈ 115 µM) | 50 (≈ 115 µM) | 100 (≈ 229 µM) | 100 (≈ 229 µM) | 100 (≈ 229 µM) | 100 (≈ 229 µM) | 50 (≈ 115 µM) | 100 (≈ 229 µM) | 12 | < 10 | logP [3]: 4.18; zone of inhibition at 100 µg/disc [22]: 12 mm; zone of inhibition at 100 µg/disc [23]: 15 mm; MIC [24]: 100 µg/mL (≈ 229 µM); MIC [25]: 100 µg/mL (≈ 229 µM); MIC [26]: 100 µg/mL (≈ 229 µM); MIC [27]: 100 µg/mL (≈ 229 µM); MIC [28]: > 6.25 µg/mL
O=C(CSc1nnc(Cn2cnc3ccccc32)o1)Nc1nc2ccc([N+](=O)[O-])cc2s1 | 50 (≈ 107 µM) | 98 | 21 | 25 | 18 | 16 | 16 | 19 | 15 | 20 | 12.5 (≈ 26.7 µM) | 12.5 (≈ 26.7 µM) | 50 (≈ 107 µM) | 100 (≈ 214 µM) | 100 (≈ 214 µM) | 50 (≈ 107 µM) | 100 (≈ 214 µM) | 50 (≈ 107 µM) | 23 | 22 | zone of inhibition at 100 µg/disc [22]: 27 mm; zone of inhibition at 100 µg/disc [23]: 15 mm; MIC [24]: 12.5 µg/mL (≈ 26.7 µM); MIC [25]: 50 µg/mL (≈ 107 µM); MIC [26]: 25 µg/mL (≈ 53.5 µM); MIC [27]: 100 µg/mL (≈ 214 µM); MIC [28]: > 6.25 µg/mL
O=C(CSc1nnc(Cn2cnc3ccccc32)o1)Nc1ccc(Br)cc1 | 12.5 (≈ 28.1 µM) | 99 | 23 | 26 | 19 | 26 | 22 | 22 | 17 | 22 | 6.25 (≈ 14.1 µM) | 12.5 (≈ 28.1 µM) | 50 (≈ 113 µM) | 12.5 (≈ 28.1 µM) | 50 (≈ 113 µM) | 50 (≈ 113 µM) | 100 (≈ 225 µM) | 25 (≈ 56.3 µM) | 16 | 24 | zone of inhibition at 100 µg/disc [22]: 23 mm; zone of inhibition at 100 µg/disc [23]: 16 mm; MIC [24]: 100 µg/mL (≈ 225 µM); MIC [25]: 25 µg/mL (≈ 56.3 µM); MIC [26]: 50 µg/mL (≈ 113 µM); MIC [27]: 100 µg/mL (≈ 225 µM); MIC [28]: > 6.25 µg/mL
